The text below walks through data of patent US6630501B1, “Phosphinic pseudo-peptides that may be used as matrix zinc metalloprotease inhibitors” (Commissariat a l'energie Atomique, priority 1999, dated 2003).

The target in assay [1] is T1, MMP-11 (stromelysin-3, mST3) (Mus musculus, UniProt Q02853).
T1 construct: made in house; host or cells: E. coli
T1 sequence (Q02853 102-492): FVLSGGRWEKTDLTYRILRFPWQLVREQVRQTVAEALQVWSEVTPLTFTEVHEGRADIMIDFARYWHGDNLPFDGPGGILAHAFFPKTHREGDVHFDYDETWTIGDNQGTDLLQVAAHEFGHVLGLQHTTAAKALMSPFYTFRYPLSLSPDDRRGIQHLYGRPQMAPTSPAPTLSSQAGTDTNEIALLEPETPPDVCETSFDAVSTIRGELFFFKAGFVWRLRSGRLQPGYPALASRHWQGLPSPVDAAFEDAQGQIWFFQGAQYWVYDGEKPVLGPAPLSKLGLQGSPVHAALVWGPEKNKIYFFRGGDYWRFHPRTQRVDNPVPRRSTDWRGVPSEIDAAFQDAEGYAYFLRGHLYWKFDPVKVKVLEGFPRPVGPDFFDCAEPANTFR
Kind of assay: Ki determination with fluorogenic synthetic substrates, recombinant MMP-11. As to conditions: for Ki: Tris/50 mM HCl buffer, pH 6.8, 10 mM CaCl2, 25° C., read-out: affinity constant Ki, MMP-11 mST3. Type of assay: biochemical, murine. The procedure: (§1) The MMPs used were produced in recombinant form, in an E. coli expression system, and then purified using different types of chromatographies. Apart from stromelysin-3 (MMP-11), the MMPs produces correspond to human sequences. The Stromelysin-3 used in this study corresponds to the murine form.
(§2) The activity of each MMP was determined using two fluorogenic synthetic substrates. The cutoff of said substrates, which generates a fluorescent signal proportional to the quantity of split substrate, enables a precise determination of the kinetic parameters. The affinity constants Ki were calculated using the equation of Horowitz et al, Proc. Natl. Acad. Sci. USA, 1987, 84, p. 6654-6658 [14], accounting for the dependency of the percentage of inhibition measured experimentally according to the concentration of inhibitor, as a function of the enzyme and substrate concentration.
(§3) The experiments for conducted in a Tris/50 mM HCl buffer, pH 6.8, 10 mM CaCl2, 25° C.

The next assay concerns the target T2, MMP-2 (Gel-A) (Homo sapiens, UniProt P08253).
T2 construct: made in house; host or cells: E. coli
T2 sequence (P08253 110-660): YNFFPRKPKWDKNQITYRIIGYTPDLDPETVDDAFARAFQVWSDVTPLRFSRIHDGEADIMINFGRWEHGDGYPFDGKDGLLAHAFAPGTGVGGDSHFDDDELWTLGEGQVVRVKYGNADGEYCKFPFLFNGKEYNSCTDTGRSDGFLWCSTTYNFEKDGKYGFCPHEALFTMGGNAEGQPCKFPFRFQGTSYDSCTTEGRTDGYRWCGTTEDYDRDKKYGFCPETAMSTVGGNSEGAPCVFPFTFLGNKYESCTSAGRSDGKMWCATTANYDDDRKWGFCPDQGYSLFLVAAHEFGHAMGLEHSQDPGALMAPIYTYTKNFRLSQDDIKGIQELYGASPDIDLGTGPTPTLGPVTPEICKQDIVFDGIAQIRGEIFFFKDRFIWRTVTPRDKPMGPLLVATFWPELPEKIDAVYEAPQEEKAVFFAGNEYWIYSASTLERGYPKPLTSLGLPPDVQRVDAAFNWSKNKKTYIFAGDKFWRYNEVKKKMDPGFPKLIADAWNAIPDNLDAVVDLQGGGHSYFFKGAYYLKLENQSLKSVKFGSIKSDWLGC
In words: Ki determination with fluorogenic synthetic substrates, recombinant MMP-2. Type of assay: biochemical. The following applies: for Ki: Tris/50 mM HCl buffer, pH 6.8, 10 mM CaCl2, 25° C., read-out: affinity constant Ki, MMP-2 Gel-A. The procedure: as §1, §2, §3

Another assay deals with T3, MMP-9 (Gel-B) (Homo sapiens, UniProt P14780).
T3 construct: made in house; host or cells: E. coli
In words: Ki determination with fluorogenic synthetic substrates, recombinant MMP-9. Type of assay: biochemical. The following applies: for Ki: Tris/50 mM HCl buffer, pH 6.8, 10 mM CaCl2, 25° C., read-out: affinity constant Ki, MMP-9 Gel-B. The method, then:
as §1, §2, §3

In a further assay the target is T4, MMP-14 (MT1-MMP) (Homo sapiens, UniProt P50281).
T4 construct: made in house; host or cells: E. coli
Kind of assay: Ki determination with fluorogenic synthetic substrates, recombinant MMP-14. Type of assay: biochemical. The following applies: Tris/50 mM HCl buffer, pH 6.8, 10 mM CaCl2, 25° C.; read-out: affinity constant Ki, MMP-14 MT1-MMP. The method, then:
as §1, §2, §3

A further assay concerns the target T5, MMP-1 (HFC) (Homo sapiens, UniProt P03956).
T5 construct: made in house; host or cells: E. coli
T5 sequence (P03956 100-469): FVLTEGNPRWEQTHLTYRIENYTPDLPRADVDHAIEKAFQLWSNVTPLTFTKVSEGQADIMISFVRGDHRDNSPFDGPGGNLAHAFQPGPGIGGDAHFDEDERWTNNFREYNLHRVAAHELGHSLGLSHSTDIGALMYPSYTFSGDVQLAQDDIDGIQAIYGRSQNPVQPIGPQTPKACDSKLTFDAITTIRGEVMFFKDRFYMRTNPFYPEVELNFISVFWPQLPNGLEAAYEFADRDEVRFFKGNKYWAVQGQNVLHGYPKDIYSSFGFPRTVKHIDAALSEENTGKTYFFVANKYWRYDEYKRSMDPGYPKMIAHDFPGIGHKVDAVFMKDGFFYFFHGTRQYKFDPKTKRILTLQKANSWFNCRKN
Kind of assay: Ki determination with fluorogenic synthetic substrates, recombinant MMP-1. Type of assay: biochemical. As to conditions: for percentage of inhibition, MMP-1: @ 2 mM inhibitor. The procedure:
as §1, §2, §3

For a further assay, the target named is T6, MMP-7 (Matrilysin) (Homo sapiens, UniProt P09237).
T6 construct: made in house; host or cells: E. coli
T6 sequence (P09237 95-267): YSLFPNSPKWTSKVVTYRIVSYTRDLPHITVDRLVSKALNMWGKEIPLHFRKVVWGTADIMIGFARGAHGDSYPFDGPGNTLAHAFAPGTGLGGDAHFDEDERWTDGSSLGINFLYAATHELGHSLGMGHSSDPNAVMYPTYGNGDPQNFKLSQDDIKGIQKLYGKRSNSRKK
Kind of assay: Ki determination with fluorogenic synthetic substrates, recombinant MMP-7. Type of assay: biochemical. The procedure:
as §1, §2, §3

Another assay deals with T7, MMP-8 (HNC) (Homo sapiens, UniProt P22894).
T7 construct: made in house; host or cells: E. coli
In words: Ki determination with fluorogenic synthetic substrates, recombinant MMP-8. The following applies: for Ki: Tris/50 mM HCl buffer, pH 6.8, 10 mM CaCl2, 25° C., read-out: affinity constant Ki, MMP-8 HNC. Type of assay: biochemical. The procedure: as §1, §2, §3

T3 sequence (P14780 94-707): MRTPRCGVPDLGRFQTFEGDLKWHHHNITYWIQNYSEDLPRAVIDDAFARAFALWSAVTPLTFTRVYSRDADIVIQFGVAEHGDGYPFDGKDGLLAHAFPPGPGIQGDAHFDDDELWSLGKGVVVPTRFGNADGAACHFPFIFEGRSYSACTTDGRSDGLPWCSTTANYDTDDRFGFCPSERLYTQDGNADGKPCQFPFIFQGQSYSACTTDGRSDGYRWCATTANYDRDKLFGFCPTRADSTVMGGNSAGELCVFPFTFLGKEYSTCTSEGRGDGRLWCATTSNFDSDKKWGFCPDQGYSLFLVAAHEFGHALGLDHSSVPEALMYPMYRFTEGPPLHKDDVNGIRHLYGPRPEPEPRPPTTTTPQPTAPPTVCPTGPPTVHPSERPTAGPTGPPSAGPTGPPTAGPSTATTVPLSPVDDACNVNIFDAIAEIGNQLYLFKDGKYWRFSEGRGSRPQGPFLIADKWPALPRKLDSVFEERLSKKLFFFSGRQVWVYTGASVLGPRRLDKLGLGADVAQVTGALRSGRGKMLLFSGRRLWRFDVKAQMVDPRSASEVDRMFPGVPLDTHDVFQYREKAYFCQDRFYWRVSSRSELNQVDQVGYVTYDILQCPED
T7 sequence (P22894 101-467): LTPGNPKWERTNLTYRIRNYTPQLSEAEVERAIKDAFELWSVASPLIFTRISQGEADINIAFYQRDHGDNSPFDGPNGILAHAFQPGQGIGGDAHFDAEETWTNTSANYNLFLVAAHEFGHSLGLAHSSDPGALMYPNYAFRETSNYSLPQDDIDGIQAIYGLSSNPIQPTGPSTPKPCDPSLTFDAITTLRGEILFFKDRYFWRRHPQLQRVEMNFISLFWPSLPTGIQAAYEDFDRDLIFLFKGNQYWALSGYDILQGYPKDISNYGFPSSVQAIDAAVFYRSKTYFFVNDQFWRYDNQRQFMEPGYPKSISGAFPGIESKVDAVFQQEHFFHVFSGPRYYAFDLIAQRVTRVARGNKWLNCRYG

As for `COc1ccc(CSCC(CP(=O)(O)C(Cc2ccccc2)NC(=O)OCc2ccccc2)C(=O)NC(Cc2c[nH]c3ccccc23)C(N)=O)cc1` (stereo not shown) [Compound 18], in assay [1], the “inhibitory power on MMP-11, in words” value was “very powerful inhibitor” and the Ki was 0.002 µM. At MMP-2 (Gel-A), the “inhibitory power on MMP-2, in words” value is “very powerful inhibitor” and the Ki was 0.006 µM. Besides, at MMP-9 (Gel-B), the “inhibitory power on MMP-9, in words” value is listed as “very powerful inhibitor” and the Ki turned out to be 0.003 µM. The Ki at MMP-14 (MT1-MMP) was 0.022 µM. Besides, at MMP-1 (HFC), the “percentage of inhibition, MMP-1” value stood at 13% @ 2 mM. Moreover, the “percentage of inhibition, MMP-7” value on MMP-7 (Matrilysin) (@ 50 mM inhibitor) is 84% @ 50 mM. Further, at MMP-8 (HNC), the “inhibitory power on MMP-8, in words” value was “very powerful inhibitor” and the Ki came out at 0.0007 µM.

On to `NC(=O)C(Cc1c[nH]c2ccccc12)NC(=O)C(CCCCc1ccccc1)CP(=O)(O)C(Cc1ccccc1)NC(=O)OCc1ccccc1` (stereo not shown) [Compound 16], for which the Ki was determined as 0.033 µM in assay [1]; 0.145 µM at MMP-2 (Gel-A); 0.07 µM on MMP-9 (Gel-B); 0.58 µM at MMP-14 (MT1-MMP); 0.0043 µM on MMP-8 (HNC). Besides, the “percentage of inhibition, MMP-1” value at MMP-1 (HFC) stood at 5% @ 2 mM. In addition, the “percentage of inhibition, MMP-7” value at MMP-7 (Matrilysin) (@ 50 mM inhibitor) is 65% @ 50 mM.

With `NC(=O)C(Cc1c[nH]c2ccccc12)NC(=O)C(CCCc1ccccc1)CP(=O)(O)C(Cc1ccccc1)NC(=O)OCc1ccccc1` (single isomer, unassigned) [Compound 15 S II], the Ki in assay [1] amounted to 0.05 µM; at MMP-2 (Gel-A), 0.365 µM; at MMP-9 (Gel-B), 0.25 µM; at MMP-14 (MT1-MMP), 2.29 µM; at MMP-8 (HNC), 0.46 µM. The “percentage of inhibition, MMP-1” value at MMP-1 (HFC) (listed as S II) came to 6% @ 2 mM. At MMP-7 (Matrilysin) (@ 20 mM inhibitor, listed as S II), the “percentage of inhibition, MMP-7” value was 29% @ 20 mM.

On to `NC(=O)C(Cc1c[nH]c2ccccc12)NC(=O)C(CCCc1ccccc1)CP(=O)(O)C(Cc1ccccc1)NC(=O)CNc1cc(Cl)ccc1O` (stereo not shown) [Compound 29], for which the Ki is 0.01 µM in assay [1]; 0.03 µM at MMP-2 (Gel-A); 0.034 µM on MMP-9 (Gel-B); 0.063 µM at MMP-14 (MT1-MMP); 0.0075 µM at MMP-8 (HNC). In addition, the inhibition at 1 µM is 55% on MMP-1 (HFC) (@ 1 μM inhibitor, read-out: percentage of inhibition, MMP-1) and 48% at MMP-7 (Matrilysin) (@ 1 μM inhibitor, read-out: percentage of inhibition, MMP-7).

On to `NC(=O)C(Cc1c[nH]c2ccccc12)NC(=O)C(CCCc1ccccc1)CP(=O)(O)C(Cc1ccccc1)NC(=O)OCc1ccccc1` (single isomer, unassigned) [Compound 15 R II], for which the Ki in assay [1] worked out at 0.009 µM; on MMP-2 (Gel-A), 0.042 µM; on MMP-9 (Gel-B), 0.078 µM; at MMP-14 (MT1-MMP), 0.385 µM; on MMP-8 (HNC), 0.065 µM. On MMP-1 (HFC) (listed as R II), the “percentage of inhibition, MMP-1” value came out at 16% @ 2 mM. Also, the “percentage of inhibition, MMP-7” value on MMP-7 (Matrilysin) (@ 20 mM inhibitor, listed as R II) is listed as 34% @ 20 mM.

With `NC(=O)C(Cc1c[nH]c2ccccc12)NC(=O)C(CCCc1ccccc1)CP(=O)(O)C(Cc1ccccc1)NC(=O)OCc1ccccc1` (single isomer, unassigned) [Compound 15 S I], the Ki in assay [1] stood at 0.005 µM; at MMP-2 (Gel-A), 0.045 µM; at MMP-9 (Gel-B), 0.033 µM; at MMP-14 (MT1-MMP), 0.135 µM; at MMP-8 (HNC) it was 0.016 µM. In addition, the “percentage of inhibition, MMP-1” value on MMP-1 (HFC) (listed as S I) was found to be 17% @ 2 mM. In addition, the “percentage of inhibition, MMP-7” value at MMP-7 (Matrilysin) (@ 20 mM inhibitor, listed as S I) came out at 59% @ 20 mM.

Broadly, the Ki is the equilibrium dissociation constant of an inhibitor or competing ligand from its target. The inhibition is the change of the read-out against control, counted positive when it falls.
